Assays:
Assay type in all cases: in vivo, human
[1] = system: patients treated for traumatic inflammatory conditions; experiment: Pain relief following intra-articular or peri-articular injection, Example 1; conditions: for Outcome: Improved (%) / Outcome: Improved n / Outcome: No change (%) / Outcome: No change n / Outcome: Not reported (%) / Outcome: Not reported n / Outcome: Temporarily improved (%) / Outcome: Temporarily improved n / Outcome: Worsened (%) / Outcome: Worsened n: 1 g dexpanthenol + 1 ml 0.1% bupivacaine intra- or peri-articular
Method: 62 patients ([…]) aged 21 to 85 years were treated for traumatic inflammatory conditions. The patients were administered one or more intra-articular or peri-articular injections, i.e., into the inflamed joint or nearby area, of dexpanthenol in combination with a long acting local anesthetic [4 ml of an aqueous solution of dexpanthenol Ph Eur (equal to 1 g of dexpanthenol); 1 ml of 0.1% bupivacaine]. In terms of pain relief following injection, efficacy outcome of the treatment is shown in the table below: Injection of facet joints has previously almost invariably been done using MRI to ensure exact placing of the needle. […] By palpating the patient's back in the area of pain and spasm, there is often an area of extreme tenderness about 5 cms from the midline, indicating the site of the inflamed facet joints. If a needle is inserted at right angles into this area, it will be located in or exceedingly close to the facet joint.

[2] = system: patients treated for traumatic inflammatory conditions; experiment: Safety and tolerability from case notes of the 62 patients, Example 1
Method: 62 patients ([…]) aged 21 to 85 years were treated for traumatic inflammatory conditions. The patients were administered one or more intra-articular or peri-articular injections, i.e., into the inflamed joint or nearby area, of dexpanthenol in combination with a long acting local anesthetic [4 ml of an aqueous solution of dexpanthenol Ph Eur (equal to 1 g of dexpanthenol); 1 ml of 0.1% bupivacaine].
Five (8%) of the 62 patients reported adverse events, including numbness and injection site pain, which resolved with time.

[3] = system: inflamed joint; experiment: Patient response to a program of injections into or outside the inflamed joint (description)
Method: In some embodiments, a typical dose is an aqueous solution (about 2 milliliters) containing about 500 mg of panthenol (e.g., dexpanthenol) or an aqueous solution (about 4 milliliters) containing about 1000 mg of panthenol (e.g., dexpanthenol). Lower doses can also be used (e.g., 250 mg of panthenol). The aqueous solution can be injected directly into the site of the inflamed joint or outside of the joint as described herein. A program of injections is generally desirable in which dosages similar to that indicated above are given at intervals of a few days (e.g., 2, 3, 4, 5, or 6 days) to about one week. Reduced inflammation and increased freedom of movement is typically noticeable within 48 hours from the initial injection. Using the 1000 mg dose, patients have reported an estimated 80% reduction of pain after the first injection. In certain embodiments, for larger doses (e.g., ≧1000 milligrams), the active ingredient can be provided in two or more closely spaced (e.g., from about 5 minutes to about 1 hour) and smaller doses (e.g., each independently about 400, about 500, or about 600 milligrams).

[4] = Total of all sites of complaint, n 98
[5] = site of complaint Back (post-traumatic spondylitis), n 54
[6] = where outcome reported, cohort of 62 patients, with bupivacaine
[7] = of the 62 patients, numbness and injection site pain, resolved with time, with bupivacaine

Compound: CC(C)(CO)[C@@H](O)C(=O)NCCCO [dexpanthenol]
- Outcome: Improved (%) [1, 4]: 50.0%
- Outcome: Improved n [1, 4]: 49 n
- Outcome: No change (%) [1, 4]: 10.2%
- Outcome: No change n [1, 4]: 10 n
- Outcome: Not reported (%) [1, 4]: 20.4%
- Outcome: Not reported n [1, 4]: 20 n
- Outcome: Temporarily improved (%) [1, 4]: 13.2%
- Outcome: Temporarily improved n [1, 4]: 13 n
- Outcome: Worsened (%) [1, 4]: 6.1%
- Outcome: Worsened n [1, 4]: 6 n
- effectiveness of injection adjacent to the facet joint versus directly into the joint ([1]; facet joints, injection without MRI): equally effective
- Outcome: Improved (%) [1, 5]: 55.6%
- Outcome: Improved n [1, 5]: 30 n
- Outcome: No change (%) [1, 5]: 11.1%
- Outcome: No change n [1, 5]: 6 n
- Outcome: Not reported (%) [1, 5]: 16.7%
- Outcome: Not reported n [1, 5]: 9 n
- Outcome: Temporarily improved (%) [1, 5]: 11.1%
- Outcome: Temporarily improved n [1, 5]: 6 n
- Outcome: Worsened (%) [1, 5]: 5.6%
- Outcome: Worsened n [1, 5]: 3 n
- Outcome: Improved (%) ([1]; site of complaint Hip, n 22): 40.9%
- Outcome: Improved n ([1]; site of complaint Hip, n 22): 9 n
- Outcome: No change (%) ([1]; site of complaint Hip, n 22): 9.1%
- Outcome: No change n ([1]; site of complaint Hip, n 22): 2 n
- Outcome: Not reported (%) ([1]; site of complaint Hip, n 22): 22.7%
- Outcome: Not reported n ([1]; site of complaint Hip, n 22): 5 n
- Outcome: Temporarily improved (%) ([1]; site of complaint Hip, n 22): 18.2%
- Outcome: Temporarily improved n ([1]; site of complaint Hip, n 22): 4 n
- Outcome: Worsened (%) ([1]; site of complaint Hip, n 22): 9.1%
- Outcome: Worsened n ([1]; site of complaint Hip, n 22): 2 n
- Outcome: Improved (%) ([1]; site of complaint Knee, n 8): 62.5%
- Outcome: Improved n ([1]; site of complaint Knee, n 8): 5 n
- Outcome: No change (%) ([1]; site of complaint Knee, n 8): 12.5%
- Outcome: No change n ([1]; site of complaint Knee, n 8): 1 n
- Outcome: Not reported (%) ([1]; site of complaint Knee, n 8): 25.0%
- Outcome: Not reported n ([1]; site of complaint Knee, n 8): 2 n
- Outcome: Temporarily improved (%) ([1]; site of complaint Knee, n 8): 0 (0) %
- Outcome: Temporarily improved n ([1]; site of complaint Knee, n 8): 0 (0) n
- Outcome: Worsened (%) ([1]; site of complaint Knee, n 8): 0 (0) %
- Outcome: Worsened n ([1]; site of complaint Knee, n 8): 0 (0) n
- Outcome: Improved (%) ([1]; site of complaint Other, n 14): 35.7%
- Outcome: Improved n ([1]; site of complaint Other, n 14): 5 n
- Outcome: No change (%) ([1]; site of complaint Other, n 14): 7.1%
- Outcome: No change n ([1]; site of complaint Other, n 14): 1 n
- Outcome: Not reported (%) ([1]; site of complaint Other, n 14): 28.6%
- Outcome: Not reported n ([1]; site of complaint Other, n 14): 4 n
- Outcome: Temporarily improved (%) ([1]; site of complaint Other, n 14): 21.4%
- Outcome: Temporarily improved n ([1]; site of complaint Other, n 14): 3 n
- Outcome: Worsened (%) ([1]; site of complaint Other, n 14): 7.1%
- Outcome: Worsened n ([1]; site of complaint Other, n 14): 1 n
- patients who said that their condition had worsened [1, 6]: less than 10%
- share of all patients who benefited from pain relief [1, 6]: about three-quarters
- safety and tolerability ([2]; injections into the joint or nearby area, in combination with bupivacaine, 62 patients): generally safe and well tolerated
- patients who reported adverse events (%) [2, 7]: 8%
- patients who reported adverse events (number) [2, 7]: Five

Compound: CC(C)(CO)[C@@H](O)C(=O)NCCCO [panthenol]
- reduction of pain reported by patients ([3]; 1000 mg dose, after the first injection, estimated): ~80%
- time until reduced inflammation and increased freedom of movement is noticeable ([3]; from the initial injection, typical doses 500 mg or 1000 mg in aqueous solution): ≤ 48 h

Source: patent US8906966B2, “Medicaments containing panthenol” (priority 2006, dated 2014)
